# Data: US11702404B2, “GLP-1R modulating compounds” (priority 2019, dated 2023)
# Like-named read-outs stand apart in the source and are kept apart here.
# What was measured:
# [1] = molecular target: GLP-1R (Homo sapiens, UniProt P43220); assay: GLP-1R activation: cAMP increase in CHO cells stably expressing GLP-1R; format: cell-based; settings: read-out: EC50
# [2] = Microsomal stability, human liver microsomes (predicted hepatic clearance); settings: predicted from in vitro microsomal stability data
# [3] = cAMP increase, CHO cells stably expressing GLP-1R, 10 point dose response, 30 minutes incubation
# Sequence of GLP-1R (P43220 24-463): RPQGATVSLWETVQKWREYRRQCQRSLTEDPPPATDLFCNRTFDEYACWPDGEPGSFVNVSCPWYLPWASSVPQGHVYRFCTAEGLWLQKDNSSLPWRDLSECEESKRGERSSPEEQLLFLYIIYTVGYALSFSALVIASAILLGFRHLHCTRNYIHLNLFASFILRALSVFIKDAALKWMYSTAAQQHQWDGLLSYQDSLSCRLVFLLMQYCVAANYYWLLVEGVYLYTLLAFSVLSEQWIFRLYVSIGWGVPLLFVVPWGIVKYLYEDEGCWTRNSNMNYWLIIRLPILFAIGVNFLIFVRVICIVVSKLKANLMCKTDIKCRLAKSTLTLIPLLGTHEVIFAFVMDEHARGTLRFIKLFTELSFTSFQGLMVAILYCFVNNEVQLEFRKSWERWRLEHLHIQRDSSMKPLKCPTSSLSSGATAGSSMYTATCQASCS
SMILES,"EC50 [1, 3]",Predicted Hepatic Clearance (Pred. Cl.) [2],EC50 [1]
"COCCn1c(Cc2ccc(-c3cccc(OCc4ccc(C#N)cc4F)n3)cc2C#CC2CCOCC2)nc2ccc(C(=O)O)cc21 [Example 438, 2-(4-(6-((4-cyano-2-fluorobenzyl)oxy)pyridin-2-yl)-2-((tetrahydro-2H-pyran-4-yl)ethynyl)benzyl)-1-(2-methoxyethyl)-1H-benzo[d]imidazole-6-carboxylic]",64.7 nM,18.7 mL/min/kg,
"N#Cc1ccc(COc2cccc(-c3cc(F)c(Cc4nc5ccc(C(=O)O)nc5n4CC4(CF)CC4)cc3F)n2)c(F)c1 [Example 440, 2-(4-(6-((4-cyano-2-fluorobenzyl)oxy)pyridin-2-yl)-2,5-difluorobenzyl)-3-((1-(fluoromethyl)cyclopropyl)methyl)-3H-imidazo[4,5-b]pyridine-5-carboxylic acid]",2.12 nM,5 mL/min/kg,
"N#CCC1(Cn2c(Cc3cc(F)c(-c4ccnc(OCc5ccc(C#N)cc5F)n4)cc3F)nc3ccc(C(=O)O)cc32)CC1 [Example 441, 2-(4-(2-((4-cyano-2-fluorobenzyl)oxy)pyrimidin-4-yl)-2,5-difluorobenzyl)-1-((1-(cyanomethyl)cyclopropyl)methyl)-1H-benzo[d]imidazole-6-carboxylic acid]",0.21 nM,3 mL/min/kg,
"N#CCC1(Cn2c(Cc3cc(F)c(-c4ccnc(OCc5ccc(Cl)cc5F)n4)cc3F)nc3ccc(C(=O)O)cc32)CC1 [Example 442, 2-(4-(2-((4-chloro-2-fluorobenzyl)oxy)pyrimidin-4-yl)-2,5-difluorobenzyl)-1-((1-(cyanomethyl)cyclopropyl)methyl)-1H-benzo[d]imidazole-6-carboxylic acid]",0.14 nM,3.67 mL/min/kg,
"COc1cc(Cl)ccc1COc1cccc(-c2cc(F)c(Cc3nc4ccc(C(=O)O)cc4n3CC3(CC#N)CC3)cc2F)n1 [Example 443, 2-(4-(6-((4-chloro-2-methoxybenzyl)oxy)pyridin-2-yl)-2,5-difluorobenzyl)-1-((1-(cyanomethyl)cyclopropyl)methyl)-1H-benzo[d]imidazole-6-carboxylic acid]",0.15 nM,11 mL/min/kg,
"N#Cc1ccc(COc2cccc(-c3cc(F)c(Cc4nc5ccc(C(=O)O)cc5n4C[C@@H]4CCO4)cc3F)n2)c(F)c1 [Example 444, (S)-2-(4-(6-((4-cyano-2-fluorobenzyl)oxy)pyridin-2-yl)-2,5-difluorobenzyl)-1-(oxetan-2-ylmethyl)-1H-benzo[d]imidazole-6-carboxylic acid]",0.25 nM,4.13 mL/min/kg,
"COc1cc(Cl)ccc1COc1cccc(-c2cc(F)c(Cc3nc4ccc(C(=O)O)cc4n3CC3(CF)CC3)cc2F)n1 [Example 445, 2-(4-(6-((4-chloro-2-methoxybenzyl)oxy)pyridin-2-yl)-2,5-difluorobenzyl)-1-((1-(fluoromethyl)cyclopropyl)methyl)-1H-benzo[d]imidazole-6-carboxylic acid]",0.5 nM,9.67 mL/min/kg,
"N#Cc1ccc(COc2cccc(-c3cc(F)c(Cc4nc5c(F)cc(C(=O)O)cc5n4CC4(CF)CC4)cc3F)n2)c(F)c1 [Example 448, 2-(4-(6-((4-cyano-2-fluorobenzyl)oxy)pyridin-2-yl)-2,5-difluorobenzyl)-4-fluoro-1-((1-(fluoromethyl)cyclopropyl)methyl)-1H-benzo[d]imidazole-6-carboxylic]",1.23 nM,<1.83 mL/min/kg,
"N#Cc1ccc(COc2nc(-c3cc(F)c(Cc4nc5ccc(C(=O)O)cc5n4C[C@@H]4CCO4)cc3F)ncc2F)c(F)c1 [Example 449, (S)-2-(4-(4-((4-cyano-2-fluorobenzyl)oxy)-5-fluoropyrimidin-2-yl)-2,5-difluorobenzyl)-1-(oxetan-2-ylmethyl)-1H-benzo[d]imidazole-6-carboxylic acid]",0.17 nM,4.33 mL/min/kg,
"N#Cc1ccc(COc2nc(-c3cc(F)c(Cc4nc5ccc(C(=O)O)cc5n4C[C@@H]4CCO4)cc3F)ccc2F)c(F)c1 [Example 450, (S)-2-(4-(6-((4-cyano-2-fluorobenzyl)oxy)-5-fluoropyridin-2-yl)-2,5-difluorobenzyl)-1-(oxetan-2-ylmethyl)-1H-benzo[d]imidazole-6-carboxylic acid]",0.77 nM,<1.83 mL/min/kg,
"N#Cc1ccc(COc2ccnc(-c3cc(F)c(Cc4nc5ccc(C(=O)O)cc5n4C[C@@H]4CCO4)cc3F)n2)c(F)c1 [Example 451, (S)-2-(4-(4-((4-cyano-2-fluorobenzyl)oxy)pyrimidin-2-yl)-2,5-difluorobenzyl)-1-(oxetan-2-ylmethyl)-1H-benzo[d]imidazole-6-carboxylic acid]",0.16 nM,4.83 mL/min/kg,
"CCn1cncc1Cn1c(Cc2ccc(-c3cccc(OCc4ccc(C#N)cc4F)n3)c(F)c2)nc2c(F)cc(C(=O)O)cc21 [Example 452, 2-(4-(6-((4-cyano-2-fluorobenzyl)oxy)pyridin-2-yl)-3-fluorobenzyl)-1-((1-ethyl-1H-imidazol-5-yl)methyl)-4-fluoro-1H-benzo[d]imidazole-6-carboxylic acid]",0.16 nM,7.17 mL/min/kg,
"CC(=O)N1CCC[C@H]1Cn1c(Cc2ccc(-c3cccc(OCc4ccc(C#N)cc4F)n3)cc2F)nc2ccc(C(=O)O)cc21 [Example 453, (S)-1-((1-acetylpyrrolidin-2-yl)methyl)-2-(4-(6-((4-cyano-2-fluorobenzyl)oxy)pyridin-2-yl)-2-fluorobenzyl)-1H-benzo[d]imidazole-6-carboxylic acid]",,3.83 mL/min/kg,40.3 nM
"N#Cc1ccc(COc2cccc(-c3ccc(Cc4nc5ccc(C(=O)O)cc5n4Cc4cscn4)c(F)c3)n2)c(F)c1 [Example 454, 2-(4-(6-((4-cyano-2-fluorobenzyl)oxy)pyridin-2-yl)-2-fluorobenzyl)-1-(thiazol-4-ylmethyl)-1H-benzo[d]imidazole-6-carboxylic acid]",5.53 nM,4.67 mL/min/kg,
"N#Cc1ccc(COc2cccc(-c3ccc(Cc4nc5c(F)cc(C(=O)O)cc5n4C[C@@H]4CCO4)c(F)c3)n2)c(F)c1 [Example 455, (S)-2-(4-(6-((4-cyano-2-fluorobenzyl)oxy)pyridin-2-yl)-2-fluorobenzyl)-4-fluoro-1-(oxetan-2-ylmethyl)-1H-benzo[d]imidazole-6-carboxylic acid]",1.87 nM,<1.83 mL/min/kg,
"N#Cc1ccc(COc2cccc(-c3ccc(Cc4nc5ccc(C(=O)O)cc5n4CC4(n5ccnn5)CC4)cc3F)n2)c(F)c1 [Example 457, 1-((1-(1H-1,2,3-triazol-1-yl)cyclopropyl)methyl)-2-(4-(6-((4-cyano-2-fluorobenzyl)oxy)pyridin-2-yl)-3-fluorobenzyl)-1H-benzo[d]imidazole-6-carboxylic acid]",1.4 nM,7.83 mL/min/kg,
"COCCn1c(Cc2ccc(-c3cccc(OCc4ccc(C(F)(F)F)nc4OC)n3)cc2F)nc2ccc(C(=O)O)cc21 [Example 458, 2-[[2-fluoro-4-[6-[[2-methoxy-6-(trifluoromethyl)-3-pyridyl]methoxy]-2-pyridyl]phenyl]methyl]-3-(2-methoxyethyl)benzimidazole-5-carboxylic acid]",2.78 nM,<1.83 mL/min/kg,
"COCCn1c(Cc2ccc(-c3cccc(OCc4ccc(C(F)(F)F)cc4OC)n3)cc2F)nc2ccc(C(=O)O)cc21 [Example 459, 2-(2-fluoro-4-(6-((2-methoxy-4-(trifluoromethyl)benzyl)oxy)pyridin-2-yl)benzyl)-1-(2-methoxyethyl)-1H-benzo[d]imidazole-6-carboxylic acid]",2.35 nM,<1.83 mL/min/kg,
"COCCn1c(Cc2ccc(-c3cccc(OCc4ccc(C5(F)COC5)cc4)n3)cc2F)nc2ccc(C(=O)O)cc21 [Example 460, 2-(2-fluoro-4-(6-((4-(3-fluorooxetan-3-yl)benzyl)oxy)pyridin-2-yl)benzyl)-1-(2-methoxyethyl)-1H-benzo[d]imidazole-6-carboxylic acid]",15.7 nM,12.5 mL/min/kg,
"N#Cc1ccc(COc2cccc(-c3ccc(Cc4nc5ccc(C(=O)O)cc5n4CC4(n5ccnn5)CC4)cc3)n2)c(F)c1 [Example 461, 1-((1-(1H-1,2,3-triazol-1-yl)cyclopropyl)methyl)-2-(4-(6-((4-cyano-2-fluorobenzyl)oxy)pyridin-2-yl)benzyl)-1H-benzo[d]imidazole-6-carboxylic acid]",2.47 nM,7.17 mL/min/kg,
"CCn1cncc1Cn1c(Cc2ccc(-c3ccc(F)c(OCc4ccc(Cl)cc4F)c3)cc2F)nc2ccc(C(=O)O)cc21 [Example 466, 2-((3′-((4-chloro-2-fluorobenzyl)oxy)-3,4′-difluoro-[1,1′-biphenyl]-4-yl)methyl)-1-((1-ethyl-1H-imidazol-5-yl)methyl)-1H-benzo[d]imidazole-6-carboxylic acid]",1.87 nM,3.83 mL/min/kg,
"N#Cc1ccc(COc2cccc(-c3ccc(Cc4nc5c(F)cc(C(=O)O)cc5n4CC(O)CCO)c(F)c3)n2)c(F)c1 (stereo not shown) [Example 468, 2-[[4-[6-[(4-cyano-2-fluoro-phenyl)methoxy]-2-pyridyl]-2-fluoro-phenyl]methyl]-3-(2,4-dihydroxybutyl)-7-fluoro-benzimidazole-5-carboxylic acid]",26.9 nM,2.17 mL/min/kg,
"COCCn1c(Cc2ccc(-c3cccc(OCc4cc(C(F)(F)F)ccc4OC)n3)cc2F)nc2ccc(C(=O)O)cc21 [Example 470, 2-(2-fluoro-4-(6-((2-methoxy-5-(trifluoromethyl)benzyl)oxy)pyridin-2-yl)benzyl)-1-(2-methoxyethyl)-1H-benzo[d]imidazole-6-carboxylic acid]",1250 nM,<1.83 mL/min/kg,
